# Assay: Absorption and emission spectra of MB-102 (FIG. 3)
# Assay type: physicochemical
# Description: By way of illustrative example, FIG. 3 is a graph summarizing the absorption spectra for HbO2 and Hb, as well as the absorption and emission spectra of frequency spectra of MB-102, an exogenous fluorescent agent in one aspect. Emission spectra for a blue LED light source and a green LED light source are also shown superimposed over the other spectra of FIG. 3. In this aspect, the system 200 may include a blue LED as the first light source 218, and the excitatory wavelength for the system 200 may be the isosbestic wavelength of about 450 nm. […] However, at wavelengths above about 500 nm, the HbO2/Hb spectra are less steeply sloped, and a broader band light source including, but not limited to, an LED with a bandpass filter may suffice for use as a first light source 218.
# In another aspect, the excitatory wave length may be selected to enhance the contrast in light absorbance between the exogenous fluorescent agent and the chromophores within the tissues of the patient 202. […] Without being limited to any particular theory, a higher proportion of light illuminating the tissue of the patient 202 at a wavelength of about 450 nm will be absorbed by the MB-102 relative to the HbO2 and Hb, thus enhancing the efficiency of absorption by the MB-102 and reducing the intensity of light at the excitatory wavelength needed to elicit a detectable fluorescence signal. […]
structure (smiles),measurement,setting,value
Nc1nc(C(=O)N[C@H](CO)C(=O)O)c(N)nc1C(=O)N[C@H](CO)C(=O)O [MB-102],light absorption relative to the light absorption of the HbO2 and the Hb,at the isosbestic wavelength of 452 nm,more than three-fold higher
same,emission peak wavelength,emission spectrum,about 550 nm
